Test results published in patent US10258642B2, “Dextran sulfate for use in mobilization of cells” (TX MEDIC AB, priority 2013, dated 2019).
Marks after values point to notes of the source that are not given here.

Tested on: peripheral blood cells
Test: s.c. dose finding study, hematological analysis of peripheral blood
Conditions: for Basophils / Eosinophils / Erythrocytes / Hematocrit / Hemoglobin / LUC / Leukocytes (WBC) / Lymphocytes / MCHC / MCV / MPV / Monocytes / Neutrophils / Platelets / Reticulocytes: 3 hours, mean ± SEM

dextran sulfate [LMW-DS]
circulating white blood cells (WBC), mainly lymphocytes, and HGF (10-500 mg/kg s.c., 3 hours after administration): dose-dependent increase | Basophils (LMW-DS (pKC) 10 mg/kg s.c.): 0.02 ± 0.0 10^9 cells/L | Eosinophils (LMW-DS (pKC) 10 mg/kg s.c.): 0.2 ± 0.0† 10^9 cells/L | Erythrocytes (LMW-DS (pKC) 10 mg/kg s.c.): 9.0 ± 0.0††† 10^12 cells/L | Hematocrit (LMW-DS (pKC) 10 mg/kg s.c.): 0.4 ± 0.0 | Hemoglobin (LMW-DS (pKC) 10 mg/kg s.c.): 122.0 ± 1.7 | LUC (LMW-DS (pKC) 10 mg/kg s.c.): 0.1 ± 0.0* 10^9 cells/L | Leukocytes (WBC) (LMW-DS (pKC) 10 mg/kg s.c.): 9.0 ± 1.2* 10^9 cells/L | Lymphocytes (LMW-DS (pKC) 10 mg/kg s.c.): 6.1 ± 0.5** 10^9 cells/L | MCHC (LMW-DS (pKC) 10 mg/kg s.c.): 323.7 ± 3.8 g/L | MCV (LMW-DS (pKC) 10 mg/kg s.c.): 41.9 ± 0.1 fL | MPV (LMW-DS (pKC) 10 mg/kg s.c.): 7.7 ± 0.2 | Monocytes (LMW-DS (pKC) 10 mg/kg s.c.): 0.6 ± 0.011 10^9 cells/L | Neutrophils (LMW-DS (pKC) 10 mg/kg s.c.): 1.9 ± 0.4 10^9 cells/L | Platelets (LMW-DS (pKC) 10 mg/kg s.c.): 1083.3 ± 116.3† 10^9 cells/L | Reticulocytes (LMW-DS (pKC) 10 mg/kg s.c.): 222.7 ± 6.3 10^9 cells/L | Basophils (LMW-DS (pKC) 50 mg/kg s.c.): 0.03 ± 0.0 10^9 cells/L | Eosinophils (LMW-DS (pKC) 50 mg/kg s.c.): 0.2 ± 0.0 10^9 cells/L | Erythrocytes (LMW-DS (pKC) 50 mg/kg s.c.): 9.2 ± 0.4† 10^12 cells/L | Hematocrit (LMW-DS (pKC) 50 mg/kg s.c.): 0.4 ± 0.0 | Hemoglobin (LMW-DS (pKC) 50 mg/kg s.c.): 127.8 ± 5.0 | LUC (LMW-DS (pKC) 50 mg/kg s.c.): 0.1 ± 0.0* 10^9 cells/L | Leukocytes (WBC) (LMW-DS (pKC) 50 mg/kg s.c.): 9.4 ± 0.7 10^9 cells/L | Lymphocytes (LMW-DS (pKC) 50 mg/kg s.c.): 7.3 ± 0.6**/f 10^9 cells/L | MCHC (LMW-DS (pKC) 50 mg/kg s.c.): 324.3 ± 1.41 g/L | MCV (LMW-DS (pKC) 50 mg/kg s.c.): 42.6 ± 0.3 fL | MPV (LMW-DS (pKC) 50 mg/kg s.c.): 7.9 ± 0.1 | Monocytes (LMW-DS (pKC) 50 mg/kg s.c.): 0.3 ± 0.1 10^9 cells/L | Neutrophils (LMW-DS (pKC) 50 mg/kg s.c.): 1.5 ± 0.2 10^9 cells/L | Platelets (LMW-DS (pKC) 50 mg/kg s.c.): 902.0 ± 96.4 10^9 cells/L | Reticulocytes (LMW-DS (pKC) 50 mg/kg s.c.): 230.1 ± 64.6 10^9 cells/L | Basophils (LMW-DS (pKC) 150 mg/kg s.c.): 0.1 ± 0.0** 10^9 cells/L | Eosinophils (LMW-DS (pKC) 150 mg/kg s.c.): 0.3 ± 0.1* 10^9 cells/L | Erythrocytes (LMW-DS (pKC) 150 mg/kg s.c.): 8.3 ± 0.6 10^12 cells/L | Hematocrit (LMW-DS (pKC) 150 mg/kg s.c.): 0.3 ± 0.0 | Hemoglobin (LMW-DS (pKC) 150 mg/kg s.c.): 113.3 ± 8.2 | LUC (LMW-DS (pKC) 150 mg/kg s.c.): 0.1 ± 0.0***/†† 10^9 cells/L | Leukocytes (WBC) (LMW-DS (pKC) 150 mg/kg s.c.): 15.7 ± 0.4***/††† 10^9 cells/L | MCHC (LMW-DS (pKC) 150 mg/kg s.c.): 329.3 ± 4.9 g/L | MCV (LMW-DS (pKC) 150 mg/kg s.c.): 41.7 ± 0.4 fL | MPV (LMW-DS (pKC) 150 mg/kg s.c.): 7.2 ± 0.5 | Monocytes (LMW-DS (pKC) 150 mg/kg s.c.): 0.4 ± 0.0*/†† 10^9 cells/L | Neutrophils (LMW-DS (pKC) 150 mg/kg s.c.): 2.4 ± 0.3** 10^9 cells/L | Platelets (LMW-DS (pKC) 150 mg/kg s.c.): 893.5 ± 60.8† 10^9 cells/L | Reticulocytes (LMW-DS (pKC) 150 mg/kg s.c.): 243.7 ± 23.7 10^9 cells/L | Basophils (LMW-DS (pKC) 500 mg/kg s.c.): 0.1 ± 0.0* 10^9 cells/L | Eosinophils (LMW-DS (pKC) 500 mg/kg s.c.): 0.4 ± 0.1* 10^9 cells/L | Erythrocytes (LMW-DS (pKC) 500 mg/kg s.c.): 9.4 ± 0.2††† 10^12 cells/L | Hematocrit (LMW-DS (pKC) 500 mg/kg s.c.): 0.4 ± 0.0 | Hemoglobin (LMW-DS (pKC) 500 mg/kg s.c.): 130.3 ± 3.1 | LUC (LMW-DS (pKC) 500 mg/kg s.c.): 0.3 ± 0.2 10^9 cells/L | Leukocytes (WBC) (LMW-DS (pKC) 500 mg/kg s.c.): 21.8 ± 2.5***/†† 10^9 cells/L | MCHC (LMW-DS (pKC) 500 mg/kg s.c.): 327.3 ± 2.5 g/L
